This is an account of results in patent publication US20250084061A1, “SULFONYL FUNCTIONAL COMPOUND, METHODS AND USES THEREOF” (Hubei Biopesticide Engineering Research Centre, priority 2023, published 2025).

The structures appear in SMILES notation.

For one data set, the system named is Plutella xylostella. In words: Insecticidal activity, artificial feed surface coating method. It is filed as in vivo. The conditions noted are these: 125 mg/L test solution. On the procedure: (§1) The insecticidal activity of sulfonyl functional compounds in the above embodiments were tested for agricultural biological functions, and the targets of insecticidal activity were Heliothis armigera, Plutella xylostella and Aphiscraccivora.
(§2) Using Heliothis armigera and Plutella xylostella as target, the insecticidal activities of sulfonyl functional compounds were tested by conventional artificial feed surface coating method. 300 microliters of artificial feed and 20 microliters of test solution were added to each well of the 24-well cell culture plate. The test solution was used in different concentrations and repeated twice (Rep1 and Rep2). The concentrations of the test solution were 500 mg/L, 250 mg/L and 125 mg/L, respectively.
(§3) The insecticidal activity of sulfonyl functional compounds against Aphiscraccivora was tested by the method of dipping. Mother liquors were prepared by the sulfonyl functional compounds provided in the above embodiments dissolved in ethanol, respectively. 500 mg/L, 250 mg/L or 125 mg/L test solution could be prepared by diluting the different mother liquors with a liquor that contained 0.1 mL/L of emulgator (Tween-80). Every test solution was tested twice (Rep1 and Rep2). A blank control was set up, and the activity results were compared with the blank control. The mortality rate of 0˜30%, 30˜50%, 50-70%, 70˜90%, or 90˜100% could be orderly set as 0, 3, 5, 7, or 9.
`CC(=O)N1N=C(C)CN(N=Cc2ccc[n+](CCCCS(=O)(=O)[O-])c2)C1=O` [IV-8]: the “Insecticidal activity (mortality rate grade) Plutella xylostella” value is listed as 0 (mortality rate of 0˜30%).

On to `CC(=O)N1N=C(C)CN(N=Cc2ccc[n+](CCCS(=O)(=O)[O-])c2)C1=O` [IV-4], for which the “Insecticidal activity (mortality rate grade) Plutella xylostella” value is recorded as 3 (30˜50%).

As for `CCC(=O)N1N=C(C)CN(N=Cc2ccc[n+](CCCCS(=O)(=O)[O-])c2)C1=O` [IV-9], the “Insecticidal activity (mortality rate grade) Plutella xylostella” value is given as 0 (mortality rate of 0˜30%).

Turning to `CC1=NNC(=O)N(N=Cc2ccc[n+](CC=CS(=O)(=O)[O-])c2)C1` [IV-2], the “Insecticidal activity (mortality rate grade) Plutella xylostella” value is 0 (mortality rate of 0˜30%).

Consider `CC(=O)N1N=C(C)CN(N=Cc2ccc[n+](CC=CS(=O)(=O)[O-])c2)C1=O` [IV-6], for which the “Insecticidal activity (mortality rate grade) Plutella xylostella” value is reported as 0 (mortality rate of 0˜30%).

As to `CC1=NNC(=O)N(N=Cc2ccc[n+](CCCS(=O)(=O)[O-])c2)C1` [IV-1], the “Insecticidal activity (mortality rate grade) Plutella xylostella” value is reported as 3 (30˜50%).

The same data set, now with this note: 250 mg/L test solution.
With `CC(=O)N1N=C(C)CN(N=Cc2ccc[n+](CCCCS(=O)(=O)[O-])c2)C1=O` [IV-8], the “Insecticidal activity (mortality rate grade) Plutella xylostella” value is listed as 3 (30˜50%).

Take `CC(=O)N1N=C(C)CN(N=Cc2ccc[n+](CCCS(=O)(=O)[O-])c2)C1=O` [IV-4]: the “Insecticidal activity (mortality rate grade) Plutella xylostella” value is on record as 5 (50-70%).

In the case of `CCC(=O)N1N=C(C)CN(N=Cc2ccc[n+](CCCCS(=O)(=O)[O-])c2)C1=O` [IV-9], the “Insecticidal activity (mortality rate grade) Plutella xylostella” value is listed as 0 (mortality rate of 0˜30%).

Regarding `CC1=NNC(=O)N(N=Cc2ccc[n+](CC=CS(=O)(=O)[O-])c2)C1` [IV-2], the “Insecticidal activity (mortality rate grade) Plutella xylostella” value is given as 3 (30˜50%).

For `CC(=O)N1N=C(C)CN(N=Cc2ccc[n+](CC=CS(=O)(=O)[O-])c2)C1=O` [IV-6], the “Insecticidal activity (mortality rate grade) Plutella xylostella” value is reported as 3 (30˜50%).

Consider `CC1=NNC(=O)N(N=Cc2ccc[n+](CCCS(=O)(=O)[O-])c2)C1` [IV-1], for which the “Insecticidal activity (mortality rate grade) Plutella xylostella” value is 3 (30˜50%).

Staying with this data set, now noted: 500 mg/L test solution.
Take `CC(=O)N1N=C(C)CN(N=Cc2ccc[n+](CCCCS(=O)(=O)[O-])c2)C1=O` [IV-8]: the “Insecticidal activity (mortality rate grade) Plutella xylostella” value is recorded as 3 (30˜50%).

Consider `CC(=O)N1N=C(C)CN(N=Cc2ccc[n+](CCCS(=O)(=O)[O-])c2)C1=O` [IV-4], for which the “Insecticidal activity (mortality rate grade) Plutella xylostella” value was 5 (50-70%).

Regarding `CCC(=O)N1N=C(C)CN(N=Cc2ccc[n+](CCCCS(=O)(=O)[O-])c2)C1=O` [IV-9], the “Insecticidal activity (mortality rate grade) Plutella xylostella” value was 3 (30˜50%).

`CC1=NNC(=O)N(N=Cc2ccc[n+](CC=CS(=O)(=O)[O-])c2)C1` [IV-2]: the “Insecticidal activity (mortality rate grade) Plutella xylostella” value is reported as 5 (50-70%).

Take `CC(=O)N1N=C(C)CN(N=Cc2ccc[n+](CC=CS(=O)(=O)[O-])c2)C1=O` [IV-6]: the “Insecticidal activity (mortality rate grade) Plutella xylostella” value was 5 (50-70%).

For `CC1=NNC(=O)N(N=Cc2ccc[n+](CCCS(=O)(=O)[O-])c2)C1` [IV-1], the “Insecticidal activity (mortality rate grade) Plutella xylostella” value is 5 (50-70%).

For another data set, the system named is Heliothis armigera. The data set is described as above. It is filed as in vivo. To be noted: 125 mg/L test solution. The procedure: as §1, §2, §3
For the compound `CC(=O)N1N=C(C)CN(N=Cc2ccc[n+](CCCCS(=O)(=O)[O-])c2)C1=O` [IV-8], the “Insecticidal activity (mortality rate grade) Heliothis armigera” value is reported as 0 (mortality rate of 0˜30%).

`CC(=O)N1N=C(C)CN(N=Cc2ccc[n+](CCCS(=O)(=O)[O-])c2)C1=O` [IV-4]: the “Insecticidal activity (mortality rate grade) Heliothis armigera” value is reported as 0 (mortality rate of 0˜30%).

In the case of `CCC(=O)N1N=C(C)CN(N=Cc2ccc[n+](CCCCS(=O)(=O)[O-])c2)C1=O` [IV-9], the “Insecticidal activity (mortality rate grade) Heliothis armigera” value is 0 (mortality rate of 0˜30%).

Turning to `CC1=NNC(=O)N(N=Cc2ccc[n+](CC=CS(=O)(=O)[O-])c2)C1` [IV-2], the “Insecticidal activity (mortality rate grade) Heliothis armigera” value is reported as 0 (mortality rate of 0˜30%).

In the case of `CC(=O)N1N=C(C)CN(N=Cc2ccc[n+](CC=CS(=O)(=O)[O-])c2)C1=O` [IV-6], the “Insecticidal activity (mortality rate grade) Heliothis armigera” value was 0 (mortality rate of 0˜30%).

Consider `CC1=NNC(=O)N(N=Cc2ccc[n+](CCCS(=O)(=O)[O-])c2)C1` [IV-1], for which the “Insecticidal activity (mortality rate grade) Heliothis armigera” value is recorded as 0 (mortality rate of 0˜30%).

Staying with this data set, now noted: 250 mg/L test solution.
With `CC(=O)N1N=C(C)CN(N=Cc2ccc[n+](CCCCS(=O)(=O)[O-])c2)C1=O` [IV-8], the “Insecticidal activity (mortality rate grade) Heliothis armigera” value was 0 (mortality rate of 0˜30%).

For the compound `CC(=O)N1N=C(C)CN(N=Cc2ccc[n+](CCCS(=O)(=O)[O-])c2)C1=O` [IV-4], the “Insecticidal activity (mortality rate grade) Heliothis armigera” value is 3 (30˜50%).

As for `CCC(=O)N1N=C(C)CN(N=Cc2ccc[n+](CCCCS(=O)(=O)[O-])c2)C1=O` [IV-9], the “Insecticidal activity (mortality rate grade) Heliothis armigera” value was 0 (mortality rate of 0˜30%).

Turning to `CC1=NNC(=O)N(N=Cc2ccc[n+](CC=CS(=O)(=O)[O-])c2)C1` [IV-2], the “Insecticidal activity (mortality rate grade) Heliothis armigera” value is reported as 0 (mortality rate of 0˜30%).

As for `CC(=O)N1N=C(C)CN(N=Cc2ccc[n+](CC=CS(=O)(=O)[O-])c2)C1=O` [IV-6], the “Insecticidal activity (mortality rate grade) Heliothis armigera” value is 3 (30˜50%).

`CC1=NNC(=O)N(N=Cc2ccc[n+](CCCS(=O)(=O)[O-])c2)C1` [IV-1]: the “Insecticidal activity (mortality rate grade) Heliothis armigera” value is on record as 3 (30˜50%).

Still in this data set, the particulars now being: 500 mg/L test solution.
On to `CC(=O)N1N=C(C)CN(N=Cc2ccc[n+](CCCCS(=O)(=O)[O-])c2)C1=O` [IV-8], for which the “Insecticidal activity (mortality rate grade) Heliothis armigera” value is 0 (mortality rate of 0˜30%).

As to `CC(=O)N1N=C(C)CN(N=Cc2ccc[n+](CCCS(=O)(=O)[O-])c2)C1=O` [IV-4], the “Insecticidal activity (mortality rate grade) Heliothis armigera” value is 5 (50-70%).

For `CCC(=O)N1N=C(C)CN(N=Cc2ccc[n+](CCCCS(=O)(=O)[O-])c2)C1=O` [IV-9], the “Insecticidal activity (mortality rate grade) Heliothis armigera” value is 0 (mortality rate of 0˜30%).

As for `CC1=NNC(=O)N(N=Cc2ccc[n+](CC=CS(=O)(=O)[O-])c2)C1` [IV-2], the “Insecticidal activity (mortality rate grade) Heliothis armigera” value is recorded as 0 (mortality rate of 0˜30%).

With `CC(=O)N1N=C(C)CN(N=Cc2ccc[n+](CC=CS(=O)(=O)[O-])c2)C1=O` [IV-6], the “Insecticidal activity (mortality rate grade) Heliothis armigera” value is listed as 3 (30˜50%).

Consider `CC1=NNC(=O)N(N=Cc2ccc[n+](CCCS(=O)(=O)[O-])c2)C1` [IV-1], for which the “Insecticidal activity (mortality rate grade) Heliothis armigera” value is 3 (30˜50%).

A further data set deals with Aphiscraccivora. In words: Insecticidal activity, dipping method. It is filed as in vivo. To be noted: 125 mg/L test solution. The procedure: as §1, §3
Regarding `CC(=O)N1N=C(C)CN(N=Cc2ccc[n+](CCCCS(=O)(=O)[O-])c2)C1=O` [IV-8], the “Insecticidal activity (mortality rate grade) Aphiscraccivora” value is 9 (90˜100%).

On to `CC(=O)N1N=C(C)CN(N=Cc2ccc[n+](CCCS(=O)(=O)[O-])c2)C1=O` [IV-4], for which the “Insecticidal activity (mortality rate grade) Aphiscraccivora” value is reported as 9 (90˜100%).

Take `CCC(=O)N1N=C(C)CN(N=Cc2ccc[n+](CCCCS(=O)(=O)[O-])c2)C1=O` [IV-9]: the “Insecticidal activity (mortality rate grade) Aphiscraccivora” value is listed as 7 (70˜90%).

As to `CC1=NNC(=O)N(N=Cc2ccc[n+](CC=CS(=O)(=O)[O-])c2)C1` [IV-2], the “Insecticidal activity (mortality rate grade) Aphiscraccivora” value is reported as 7 (70˜90%).

For `CC(=O)N1N=C(C)CN(N=Cc2ccc[n+](CC=CS(=O)(=O)[O-])c2)C1=O` [IV-6], the “Insecticidal activity (mortality rate grade) Aphiscraccivora” value is given as 5 (50-70%).

Consider `CC1=NNC(=O)N(N=Cc2ccc[n+](CCCS(=O)(=O)[O-])c2)C1` [IV-1], for which the “Insecticidal activity (mortality rate grade) Aphiscraccivora” value is reported as 9 (90˜100%).

The same data set, now with this note: 250 mg/L test solution.
`CC(=O)N1N=C(C)CN(N=Cc2ccc[n+](CCCCS(=O)(=O)[O-])c2)C1=O` [IV-8]: the “Insecticidal activity (mortality rate grade) Aphiscraccivora” value was 9 (90˜100%).

Take `CC(=O)N1N=C(C)CN(N=Cc2ccc[n+](CCCS(=O)(=O)[O-])c2)C1=O` [IV-4]: the “Insecticidal activity (mortality rate grade) Aphiscraccivora” value is recorded as 9 (90˜100%).

`CCC(=O)N1N=C(C)CN(N=Cc2ccc[n+](CCCCS(=O)(=O)[O-])c2)C1=O` [IV-9]: the “Insecticidal activity (mortality rate grade) Aphiscraccivora” value was 7 (70˜90%).

Take `CC1=NNC(=O)N(N=Cc2ccc[n+](CC=CS(=O)(=O)[O-])c2)C1` [IV-2]: the “Insecticidal activity (mortality rate grade) Aphiscraccivora” value was 9 (90˜100%).

`CC(=O)N1N=C(C)CN(N=Cc2ccc[n+](CC=CS(=O)(=O)[O-])c2)C1=O` [IV-6]: the “Insecticidal activity (mortality rate grade) Aphiscraccivora” value is 9 (90˜100%).

Consider `CC1=NNC(=O)N(N=Cc2ccc[n+](CCCS(=O)(=O)[O-])c2)C1` [IV-1], for which the “Insecticidal activity (mortality rate grade) Aphiscraccivora” value is listed as 9 (90˜100%).

The data set is the same for the next values; noted with them: 500 mg/L test solution.
For the compound `CC(=O)N1N=C(C)CN(N=Cc2ccc[n+](CCCCS(=O)(=O)[O-])c2)C1=O` [IV-8], the “Insecticidal activity (mortality rate grade) Aphiscraccivora” value is recorded as 9 (90˜100%).

For `CC(=O)N1N=C(C)CN(N=Cc2ccc[n+](CCCS(=O)(=O)[O-])c2)C1=O` [IV-4], the “Insecticidal activity (mortality rate grade) Aphiscraccivora” value is 9 (90˜100%).

As to `CCC(=O)N1N=C(C)CN(N=Cc2ccc[n+](CCCCS(=O)(=O)[O-])c2)C1=O` [IV-9], the “Insecticidal activity (mortality rate grade) Aphiscraccivora” value is 9 (90˜100%).

With `CC1=NNC(=O)N(N=Cc2ccc[n+](CC=CS(=O)(=O)[O-])c2)C1` [IV-2], the “Insecticidal activity (mortality rate grade) Aphiscraccivora” value is recorded as 9 (90˜100%).

On to `CC(=O)N1N=C(C)CN(N=Cc2ccc[n+](CC=CS(=O)(=O)[O-])c2)C1=O` [IV-6], for which the “Insecticidal activity (mortality rate grade) Aphiscraccivora” value is on record as 9 (90˜100%).

Consider `CC1=NNC(=O)N(N=Cc2ccc[n+](CCCS(=O)(=O)[O-])c2)C1` [IV-1], for which the “Insecticidal activity (mortality rate grade) Aphiscraccivora” value was 9 (90˜100%).
